Measurements: patent US7432388B2 (Allergan, Inc., priority 2003, dated 2008)

Tests used:
[1] = molecular target: T1, RARα (Homo sapiens, UniProt P10276); test: ligand binding assay; details: expressed in Ki numbers, read-out: RAR Binding α
T1 sequence (P10276 1-462): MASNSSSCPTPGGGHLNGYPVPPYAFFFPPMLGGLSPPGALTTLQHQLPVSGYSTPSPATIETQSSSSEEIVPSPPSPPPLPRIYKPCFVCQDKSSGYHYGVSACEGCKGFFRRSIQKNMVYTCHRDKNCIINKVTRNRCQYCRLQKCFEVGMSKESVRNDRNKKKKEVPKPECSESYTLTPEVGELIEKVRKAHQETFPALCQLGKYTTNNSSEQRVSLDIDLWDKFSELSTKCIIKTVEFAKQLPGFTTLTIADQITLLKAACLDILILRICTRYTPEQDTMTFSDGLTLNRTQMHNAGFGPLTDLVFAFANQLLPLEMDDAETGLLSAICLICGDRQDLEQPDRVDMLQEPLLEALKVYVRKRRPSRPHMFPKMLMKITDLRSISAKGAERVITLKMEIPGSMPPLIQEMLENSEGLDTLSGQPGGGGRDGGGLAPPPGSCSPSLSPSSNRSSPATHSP
Description: (§1) A holoreceptor transactivation assay and a ligand binding assay which measure the antagonist/agonist like activity of the compounds of the invention, or their ability to bind to the several retinoid receptor subtypes, respectively, are described in published PCT Application No. WO WO93/11755 (particularly on pages 30-33 and 37-41) published on Jun. 24, 1993, the specification of which is also incorporated herein by reference. A detailed experimental procedure for holoreceptor transactivations has been described by Heyman et al. Cell 68, 397-406, (1992); Allegretto et al. J. Biol. Chem. 268, 26625-26633, and Mangelsdorf et al. The Retinoids: Biology, Chemistry and Medicine, pp 319-349, Raven Press Ltd., New York, which are expressly incorporated herein by reference. The results obtained in this assay are expressed in EC50 numbers, as they are also in the chimeric receptor transactivation assay. The other functional assay running in the presence of 1 nM all-trans retinoic acid, namely PGA-RAR antagonist assay (utilizing glucocorticoid-retinoid chimeric receptors), is a modified chimeric receptor transactivation assay which tests the compounds for their antagonist-like activity in the RARα, RARγ and RARγ receptor subtypes. The results from this assay are normally expressed in IC50 numbers (See Teng et al. J. Med. Chem. 40, 2445-2452, (1997) incorporated herein by reference.)
(§2) The results of the ligand binding assay are expressed in Ki numbers. (See Cheng et al. Biochemical Pharmacology Vol. 22 pp 3099-3108, expressly incorporated herein by reference.)

[2] = molecular target: T2, RARβ (Homo sapiens, UniProt P10826); test: ligand binding assay; details: expressed in Ki numbers, read-out: RAR Binding β
T2 sequence (P10826 1-455): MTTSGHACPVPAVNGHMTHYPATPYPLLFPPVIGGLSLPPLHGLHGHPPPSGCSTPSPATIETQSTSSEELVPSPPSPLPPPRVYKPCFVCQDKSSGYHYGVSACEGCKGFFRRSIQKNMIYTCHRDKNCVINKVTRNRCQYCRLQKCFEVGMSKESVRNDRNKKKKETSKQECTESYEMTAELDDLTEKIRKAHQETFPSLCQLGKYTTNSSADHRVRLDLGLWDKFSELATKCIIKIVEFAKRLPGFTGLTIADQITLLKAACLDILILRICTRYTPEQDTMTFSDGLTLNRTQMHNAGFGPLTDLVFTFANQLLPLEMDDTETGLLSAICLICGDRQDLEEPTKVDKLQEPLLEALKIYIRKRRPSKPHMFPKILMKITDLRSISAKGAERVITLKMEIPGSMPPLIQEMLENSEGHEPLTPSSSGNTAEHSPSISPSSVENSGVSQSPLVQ
Description: as §1, §2

[3] = molecular target: T3, RARα (Homo sapiens, UniProt P10276); test: PGA-RAR antagonist assay (glucocorticoid-retinoid chimeric receptors); format: cell-based; set-up: other: in the presence of 1 nM all-trans retinoic acid; fused on or other part: Glucocorticoid receptor DNA-recognition part in place of RAR's own; details: in the presence of 1 nM all-trans retinoic acid; read-out: RAR IC50 (nM) (% Inhibition) α
T3 sequence (P10276 183-417 limits assumed): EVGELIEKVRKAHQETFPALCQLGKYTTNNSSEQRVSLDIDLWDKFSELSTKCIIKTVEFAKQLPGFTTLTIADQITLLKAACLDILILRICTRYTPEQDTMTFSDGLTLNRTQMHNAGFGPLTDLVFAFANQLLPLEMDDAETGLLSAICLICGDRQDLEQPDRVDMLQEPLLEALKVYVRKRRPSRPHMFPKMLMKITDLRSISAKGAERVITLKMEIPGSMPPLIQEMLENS
Description: as §1
Percentage inhibition in an antagonist assay is expressed as a percentage of the maximum inhibition of the transaction activity induced by 1 nM all-trans retinoic acid.

[4] = molecular target: T4, RARβ (Homo sapiens, UniProt P10826); test: chimeric receptor transactivation assay (agonist-like activity); format: cell-based; set-up: RAR EC50 (nM) (% Efficiency) β; details: read-out: RAR EC50 (nM) (% Efficiency) β
T4 sequence (P10826 183-417 limits assumed): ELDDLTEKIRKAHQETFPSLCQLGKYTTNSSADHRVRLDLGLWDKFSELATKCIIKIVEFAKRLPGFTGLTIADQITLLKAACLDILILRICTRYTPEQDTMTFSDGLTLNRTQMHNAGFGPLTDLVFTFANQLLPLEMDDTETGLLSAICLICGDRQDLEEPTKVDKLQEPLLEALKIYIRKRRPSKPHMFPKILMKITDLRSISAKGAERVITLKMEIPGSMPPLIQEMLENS
Method: Specifically, one assay in which the compounds were tested is a chimeric receptor transactivation assay which tests for agonist-like activity in the RARα, RARγ and RARγ receptor subtypes, and which is based on work published by Feigner P. L. and Holm M (1989) Focus, 112 is described in detail in U.S. Pat. No. 5,455,265. The specification of U.S. Pat. No. 5,455,265 is hereby expressly incorporated by reference.
as §1

| Ki [1] [µM] | Ki [2] [µM] | IC50 [3] [nM] | EC50 [4] [nM] | Compound |
| --- | --- | --- | --- | --- |
| 13 | 10 | > 1000 | > 10000 | Cc1ccc(C2=CCC(C)(C)c3cc(C(/C=C/c4ccc(C(=O)O)cc4F)=N\O)ccc32)cc1 [Compound 9b, Z-4-[3-(8,8-Dimethyl-5-p-tolyl-7,8-dihydro-naphthalen-2-yl)-3-hydroxyimino-propenyl]-3-fluoro-benzoic acid] |
| 12 | 10 | > 1000 | > 10000 | Cc1ccc(C2=CC(C)(C)c3cc(C(/C=C/c4ccc(C(=O)O)cc4F)=N/O)ccc32)cc1 [Compound 18a, E-4-[3-(3,3-Dimethyl-1-p-tolyl-3H-inden-5-yl)-3-hydroxyimino-propenyl]-3-fluoro-benzoic acid] |
| 13 | 15 | > 1000 | > 10000 | Cc1ccc(C2=CCC(C)(C)c3cc(C(/C=C/c4ccc(C(=O)O)cc4F)=N/O)ccc32)cc1 [Compound 9a, E-4-[3-(8,8-Dimethyl-5-p-tolyl-7,8-dihydro-naphthalen-2-yl)-3-hydroxyimino-propenyl]-3-fluoro-benzoic acid] |
| 7 | 10 | > 1000 | > 10000 | Cc1ccc(C2=CC(C)(C)c3cc(C(/C=C/c4ccc(C(=O)O)cc4)=N\O)ccc32)cc1 [Compound 16b] |
| 23 | 10 | > 1000 | > 10000 | Cc1ccc(C2=CC(C)(C)c3cc(C(/C=C/c4ccc(C(=O)O)cc4F)=N\O)ccc32)cc1 [Compound 18b, Z-4-[3-(3,3-Dimethyl-1-p-tolyl-3H-inden-5-yl)-3-hydroxyimino-propenyl]-3-fluoro-benzoic acid] |
| 3 | 5 | > 1000 | > 10000 | Cc1ccc(C2=CCC(C)(C)c3cc(C(/C=C/c4ccc(C(=O)O)cc4)=N/O)ccc32)cc1 [Compound 7a, E-4-[3-(8,8-Dimethyl-5-p-tolyl-7,8-dihydro-naphthalen-2-yl)-3-hydroxyimino-propenyl]-benzoic acid] |
| 5.2 | 1.9 | > 1000 | > 10000 | Cc1ccc(C2=CCC(C)(C)c3cc(C(/C=C/c4ccc(C(=O)O)cc4)=N\O)ccc32)cc1 [Compound 7b, Z-4-[3-(8,8-dimethyl-5-p-tolyl-7,8-dihydro-naphthalen-2-yl)-3-hydroxyimino-propenyl]-benzoic acid] |
| 9 | 10 | > 1000 | > 10000 | Cc1ccc(C2=CC(C)(C)c3cc(C(/C=C/c4ccc(C(=O)O)cc4)=N/O)ccc32)cc1 [Compound 16a] |
| 2.9 | 1.3 | > 50000 | > 10000 | Cc1ccc(C2=CCC(C)(C)c3cc(C(/C=C/c4ccc(C(=O)O)cc4)=NO)ccc32)cc1 (racemic) [Compound 7c, 4-[3-(8,8-Dimethyl-5-p-tolyl-7,8-dihydro-naphthalen-2-yl)-3-hydroxyimino-propenyl]-benzoic acid] |
